Data taken from PubChem BioAssay (NCI).
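Cultured in 96-well plates, cells were exposed to test compound for 48 hours across five concentrations. Definition used: TGI = concentration required for complete inhibition of growth.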

Tests used:
Assay in all cases: NCI-60 cell line screen, 48 h
K-562 leukemia = tested on: K-562 leukemia
OVCAR-4 ovarian = tested on: OVCAR-4 ovarian
HS 578T breast = tested on: HS 578T breast
TK-10 renal = tested on: TK-10 renal
U251 CNS = tested on: U251 CNS
UO-31 renal = tested on: UO-31 renal
MALME-3M melanoma = tested on: MALME-3M melanoma
IGROV1 ovarian = tested on: IGROV1 ovarian
MCF7 breast = tested on: MCF7 breast
SN12C renal = tested on: SN12C renal
ACHN renal = tested on: ACHN renal
SF-295 CNS = tested on: SF-295 CNS
HL-60(TB) leukemia = tested on: HL-60(TB) leukemia
OVCAR-3 ovarian = tested on: OVCAR-3 ovarian
A498 renal = tested on: A498 renal
MDA-N = tested on: MDA-N
SR leukemia = tested on: SR leukemia
M14 melanoma = tested on: M14 melanoma
NCI-H522 lung = tested on: NCI-H522 lung
SK-OV-3 ovarian = tested on: SK-OV-3 ovarian
SF-268 CNS = tested on: SF-268 CNS
HCT-15 colon = tested on: HCT-15 colon
RPMI-8226 leukemia = tested on: RPMI-8226 leukemia
DU-145 prostate = tested on: DU-145 prostate
MDA-MB-231 breast = tested on: MDA-MB-231 breast
LOX IMVI melanoma = tested on: LOX IMVI melanoma
SF-539 CNS = tested on: SF-539 CNS
T-47D breast = tested on: T-47D breast
SK-MEL-5 melanoma = tested on: SK-MEL-5 melanoma
HT29 colon = tested on: HT29 colon
HOP-92 NSCLC = tested on: HOP-92 NSCLC
KM12 colon = tested on: KM12 colon
UACC-62 melanoma = tested on: UACC-62 melanoma
OVCAR-5 ovarian = tested on: OVCAR-5 ovarian
HCT-116 colon = tested on: HCT-116 colon
HOP-62 NSCLC = tested on: HOP-62 NSCLC
OVCAR-8 ovarian = tested on: OVCAR-8 ovarian
BT-549 breast = tested on: BT-549 breast
CCRF-CEM leukemia = tested on: CCRF-CEM leukemia
SW-620 colon = tested on: SW-620 colon
MDA-MB-435 = tested on: MDA-MB-435
A549 NSCLC = tested on: A549 NSCLC
NCI-H226 lung = tested on: NCI-H226 lung
NCI-H460 lung = tested on: NCI-H460 lung
786-0 renal = tested on: 786-0 renal
NCI-H23 lung = tested on: NCI-H23 lung
PC-3 prostate = tested on: PC-3 prostate
COLO 205 colon = tested on: COLO 205 colon
SNB-75 CNS = tested on: SNB-75 CNS
MOLT-4 leukemia = tested on: MOLT-4 leukemia
SNB-19 CNS = tested on: SNB-19 CNS
SK-MEL-28 melanoma = tested on: SK-MEL-28 melanoma
CAKI-1 renal = tested on: CAKI-1 renal
RXF 393 renal = tested on: RXF 393 renal
UACC-257 melanoma = tested on: UACC-257 melanoma
NCI/ADR-RES ovarian = tested on: NCI/ADR-RES ovarian
HCC-2998 colon = tested on: HCC-2998 colon
SK-MEL-2 melanoma = tested on: SK-MEL-2 melanoma
EKVX NSCLC = tested on: EKVX NSCLC

Measured: TGI

O=C1Cc2c([nH]c3c(Cl)cccc23)-c2ccccc2N1
> 100 µM: K-562 leukemia | OVCAR-4 ovarian | HS 578T breast | TK-10 renal | U251 CNS | UO-31 renal | MALME-3M melanoma | IGROV1 ovarian | MCF7 breast | SN12C renal | ACHN renal | SF-295 CNS | HL-60(TB) leukemia | OVCAR-3 ovarian | A498 renal | MDA-N | SR leukemia | M14 melanoma | NCI-H522 lung | SK-OV-3 ovarian | SF-268 CNS | HCT-15 colon | RPMI-8226 leukemia | DU-145 prostate | MDA-MB-231 breast | LOX IMVI melanoma | SF-539 CNS | T-47D breast | SK-MEL-5 melanoma | HT29 colon | HOP-92 NSCLC | KM12 colon | UACC-62 melanoma | OVCAR-5 ovarian | HCT-116 colon | HOP-62 NSCLC | OVCAR-8 ovarian | BT-549 breast | CCRF-CEM leukemia | SW-620 colon | MDA-MB-435 | A549 NSCLC | NCI-H226 lung | NCI-H460 lung | 786-0 renal | NCI-H23 lung | PC-3 prostate | COLO 205 colon | SNB-75 CNS | MOLT-4 leukemia | SNB-19 CNS | SK-MEL-28 melanoma

N#Cc1n[nH]n(C2CCCCC2)c1=O
> 100 µM: CAKI-1 renal | OVCAR-4 ovarian | HS 578T breast | TK-10 renal | U251 CNS | UO-31 renal | MALME-3M melanoma | RXF 393 renal | IGROV1 ovarian | MCF7 breast | SN12C renal | ACHN renal | SF-295 CNS | HL-60(TB) leukemia | OVCAR-3 ovarian | A498 renal | MDA-N | M14 melanoma | NCI-H522 lung | SK-OV-3 ovarian | SF-268 CNS | HCT-15 colon | DU-145 prostate | MDA-MB-231 breast | LOX IMVI melanoma | SF-539 CNS | T-47D breast | SK-MEL-5 melanoma | HT29 colon | KM12 colon | UACC-62 melanoma | UACC-257 melanoma | OVCAR-5 ovarian | NCI/ADR-RES ovarian | HCT-116 colon | HOP-62 NSCLC | OVCAR-8 ovarian | BT-549 breast | CCRF-CEM leukemia | SW-620 colon | MDA-MB-435 | HCC-2998 colon | SK-MEL-2 melanoma | EKVX NSCLC | A549 NSCLC | NCI-H226 lung | NCI-H460 lung | 786-0 renal | NCI-H23 lung | PC-3 prostate | COLO 205 colon | SNB-75 CNS | MOLT-4 leukemia | SNB-19 CNS | SK-MEL-28 melanoma
